Data from patent EP1209147A1, “CARBOXYLIC ACID DERIVATIVES AND ADHESION MOLECULE INHIBITORS CONTAINING THE SAME AS THE ACTIVE INGREDIENT” (TORAY INDUSTRIES, INC., priority 1999, dated 2001).

Assays:
[1] = tested on: Jurkat cells (ATCC TIB-152); experiment: Influence on cell survival rate (alamarBlue); type: cell-based; details: cultured 24 hours with compound
Experimental: Jurkat cells (ATCC TIB-152) passaged on 10% fetal calf serum-containing RPMI medium (10F-RPMI, GIBCO) were suspended in the same medium to a cell population of 5 x 10^5 cells/ml, and the suspension was placed in each well of a 96-well plate (COSTAR) in an amount of 100 µl/well, followed by culturing the cells at 37°C under 5% CO2 for 24 hours. Then alamarBlue®(BioSource) was added in an amount of 10 µl/well and the cells were cultured for another 4 hours. Thereafter, the absorbance at 570 nm and 600 nm was measured with a microplate reader (BioRad model 3550). The test compound dissolved in 10F-RPMI was mixed with the Jurkat cells and the cells were cultured for 24 hours to examine its influence.

[2] = tested on: Mouse Asthma Model; experiment: Mouse asthma model (OVA/Alum sensitization, OVA inhalation, airway anaphylaxis and BALF eosinophils); type: in vivo, BLAB/c mouse; details: at a dose of not more than 150 mg/kg, topically or systemically
Experimental: A mixed solution containing aluminum hydroxide gel (Alum) on which ovalbumin (hereinafter "OVA") was adsorbed (20 ∝g OVA/2mg Alum/200 ∝l physiological saline) was intraperitoneally administered to each BLAB/c mouse (female, 7 weeks old, JAPAN CHARLES RIVER) at a dose of 200 ∝l ([…]) per time on DAY-1 and DAY-14 to sensitize the mouse. Then each mice was made to aspire 2% OVA dissolved in physiological saline on DAY-28, 29 and 30 to induce inflammation. Compound Nos. 143 and 236 used as the test compounds were dissolved in physiological saline and each solution was topically or systemically administered at 30 minutes before induction by OVA, and twice a day after induction.
On DAY-31, development of airway anaphylaxis was measured using a non-restrictive chamber (BUXCO). Then the bronchus of each mouse was incised and the bronchus and alveoli were washed (BAL) with 0.7 ml of physiological saline. After the washing, the washing fluid (BALF) of the bronchus and alveoli was recovered and centrifuged. The leukocytes contained in the BALF were subjected to site spin to prepare a smear specimen. After staining the specimen by May-Giemsa staining method, the leukocytes were grouped and counted under microscope to determine the number of eosinophils. The experiment was carried out using 6 to 8 mice in each group. The results are shown in terms of mean ± standard error.

[3] = tested on: superoxide; experiment: Radical scavenger action (superoxide from xanthine and xanthine oxidase); type: biochemical; details: luminescence at 380 nm, 10 to 60 seconds after xanthine oxidase addition
Experimental: The radical scavenger action of the compounds was measured using the amount of the superoxide as an index, which is produced when xanthine and xanthine oxidase are reacted. First, 1 mM of xanthine (SIGMA) dissolved in Hanks buffer solution (GIBCO), 2 mM dietylenetriamine-N,N,N',N"-pentaacetic acid (DOJIN) and 40 µM 2-methyl-6-phenyl-3,7-dihydroimidazo[1,2-a]pyrazin-3-one (TOKYO KASEI KOGYO) dissolved in distilled water when use were mixed. Further, 0.3 U/ml xanthine oxidase (BMY) dissolved in Hanks buffer when use was added. Luminescence intensity at 380 nm from 10 seconds to 60 seconds after the addition was measured by Lumat (Berthold, LB9501), and the measured amount was defined as the amount of produced superoxide. The test compound was added to the xanthine-containing solution before addition of the xanthine oxidase, and the resulting mixture was preincubated at 25°C for 5 minutes to examine its influence.

SMILES | influences on the survival rate of the cells relative to 3-(4-((2,6-dichlorophenyl)carbonylamino)phenyl)-2-((6-bromo-2-methylphenyl)carbonylamino)propanoic acid [1] | accumulation of eosinophils to the lung ([2]; BALF on DAY-31) | progress of airway anaphylaxis ([2]; DAY-31) | radical scavenger activities relative to 3-(4-((2,6-dichlorophenyl)carbonylamino)phenyl)-2-((6-bromo-2-methylphenyl)carbonylamino)propanoic acid [3] [times]
O=C(Nc1ccn(C[C@H](NC(=O)c2c(Cl)cccc2Cl)C(=O)O)c(=O)n1)c1c(Cl)cccc1Cl [Example 236, (2S)-2-((2,6-dichlorophenyl)carbonylamino)-3-(4-((2,6-dichlorophenyl)carbonylamino)-2-oxohydropyrimidinyl)propionic acid] | not more than 1/4 | inhibited | inhibited | 2 to 5
Cc1cccc(Br)c1C(=O)N[C@@H](Cn1ccc(NC(=O)c2c(Cl)cccc2Cl)nc1=O)C(=O)O [Example 240, (2S)-3-(4-((2,6-dichlorophenyl)carbonylamino)-2-oxohydropyrimidinyl)-2-((2-bromo-6-methylphenyl)carbonylamino)propionic acid] | not more than 1/4 |  |  | 2 to 5
